According to US7199129B2, “Derivatives of morphine-like opioid compounds” (Monash University, priority 2001, dated 2007):
“And” between values parts separate entries of the source, which are not always exact repeats. Equal entries are not always repeated. “Also recorded” adds a separate entry of the source.

What was measured:
ICR mice [1] = assay: Phenylquinone-induced writhing model in mice (Example 16); type: in vivo; details: IP; for No. of Writhings Individual: individual mice
Method: KRS-5-150 was evaluated for possible analgesic activity in the phenylquinone-induced writhing model in mice (Siegmund et al, 1957). A serial 2-fold dosage variance was used in the test, from 128 mg/kg to 1 mg/kg (8 doses in total). Groups of 3 male or female ICR mice weighing 22±2 g were employed. A serial 2-fold dosage variance was used in the test (8 doses in total). Variant doses (1, 2, 4, 8, 16, 32, 64 and 128 mg/kg) of test substances were administered intraperitoneally (IP). A vehicle of 2% Tween 80 in 0.9% NaCl was used for the intraperitoneal injection. The control group received vehicle alone. […] A reduction in the number of writhes by 50 percent or more (≧50%) relative to the vehicle-treated group indicated possible analgesic activity.

ICR-derived mice = assay: Phenylquinone-induced writhing assay in mice, IP and oral (Example 17); type: in vivo; details: for % Inhibition / Number of Writhings Average / Number of Writhings Individual: Table 2; for Number of Writhings Individual: individual mice; for Died (mortality, animals of group of 3): within 30 minutes after administration
Method: Further testing on compound KRS-5–150 was carried out under contract by MDS Pharma Services—Taiwan Ltd. The study was designed to evaluate the effects of the compound as an analgesic in the phenylquinone-induced writhing assay, which was described in the previous example, and in the radiant heat-induced tail-flick response assay in mice (D'Amour et al., 1941).
For the phenylquinone writhing test, groups of three male or female ICR-derived mice weighing 22±2 g were used. For the phenylquinone writhing test, KRS-5-150 at doses of 1, 2, 4, 8, 16, 32, 64 and 128 mg/kg in either 2% Tween 80/0.9% NaCl or in 2% Tween 80 was used for intraperitoneal administration, or at doses of 1, 2, 4, 8, 16, 32 or 64 mg/kg in the same vehicles for oral administration. Control animals received vehicle alone. […] A reduction in the number of writhes by 50% or more (≧50%) relative to the vehicle-treated group indicated possible analgesic activity.

human κ-opiate receptor = biological target: T1, human κ-opiate receptor (Homo sapiens, UniProt P41145); assay: In vitro opiate receptor radioligand binding assay, κ; details: test compound 10 μM
T1 construct: purchased MDS Pharma Services 260210
T1 sequence (P41145 whole entry): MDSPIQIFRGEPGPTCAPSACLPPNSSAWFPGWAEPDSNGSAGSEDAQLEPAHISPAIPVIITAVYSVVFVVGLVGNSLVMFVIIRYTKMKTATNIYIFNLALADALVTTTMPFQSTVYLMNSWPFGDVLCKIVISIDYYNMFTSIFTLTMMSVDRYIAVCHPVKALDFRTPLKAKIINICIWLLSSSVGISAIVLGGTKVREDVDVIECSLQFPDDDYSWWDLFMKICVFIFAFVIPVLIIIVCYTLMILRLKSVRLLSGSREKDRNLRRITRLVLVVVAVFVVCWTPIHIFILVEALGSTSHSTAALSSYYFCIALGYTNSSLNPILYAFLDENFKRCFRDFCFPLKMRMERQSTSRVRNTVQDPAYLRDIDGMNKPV
Method: (§1) To characterise the target specificity of the compounds, KRS-5-150 and KRS-6-26 were tested at a concentration of 10 μM for their ability to inhibit the binding of a radioligand to human δ-, κ-, or μ-opiate receptors in vitro using commercially available assays (MDS Pharma Services; assay catalogue numbers 260110, 260210 and 260410 respectively).
(§2) Percentage inhibition of radioligand binding to human opioid receptors in vitro by test compounds (10 μM)

human μ-opiate receptor = biological target: T2, human μ-opiate receptor (Homo sapiens, UniProt P35372); assay: In vitro opiate receptor radioligand binding assay, μ; details: test compound 10 μM
T2 construct: purchased MDS Pharma Services 260410
T2 sequence (P35372 whole entry): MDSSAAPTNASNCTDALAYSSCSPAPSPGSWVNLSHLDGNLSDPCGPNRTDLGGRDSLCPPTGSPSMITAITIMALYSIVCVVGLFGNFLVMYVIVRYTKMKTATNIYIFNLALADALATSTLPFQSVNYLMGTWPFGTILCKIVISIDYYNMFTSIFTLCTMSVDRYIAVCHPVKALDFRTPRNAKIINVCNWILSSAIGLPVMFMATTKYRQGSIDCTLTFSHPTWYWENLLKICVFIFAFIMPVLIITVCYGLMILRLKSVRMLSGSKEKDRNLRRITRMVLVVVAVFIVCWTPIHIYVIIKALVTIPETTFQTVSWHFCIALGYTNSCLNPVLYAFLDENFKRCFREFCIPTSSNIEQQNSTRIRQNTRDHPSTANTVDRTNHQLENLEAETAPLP
Method: as §1, §2

ICR mice [2] = assay: Straub tail behaviour (indicator of CNS activity) and observed signs in test animals
Source text: The Straub test is an indicator of CNS activity.
The tail-flick test is thought to involve central nervous system activity, and therefore provides further confirmation of the Straub tail test.

Structure (SMILES): Oc1ccc2c3c1O[C@H]1[C@@H](O)C=C[C@H]4[C@@H](C2)N(CCCNC(=Nc2ccccc2)Nc2ccccc2)CC[C@@]341 [KRS-5-150, (5α,6α)-7,8 didehydro-4,5-epoxy-17-(N,N′-bisphenylcarboxamidino-3-aminopropyl)morphinan,3,6-diol]
- % Inhibition (ICR mice [1]; 1 mg/kg, Table 1): 33%
- No. of Writhings Average (ICR mice [1]; 1 mg/kg, Table 1): 10
- No. of Writhings Individual (ICR mice [1]; 1 mg/kg, Table 1): 14 and 0 and 16
- % Inhibition (ICR mice [1]; 2 mg/kg, Table 1): 73%
- No. of Writhings Average (ICR mice [1]; 2 mg/kg, Table 1): 4
- No. of Writhings Individual (ICR mice [1]; 2 mg/kg, Table 1): 8 and 1 and 4
- % Inhibition (ICR mice [1]; 4 mg/kg, Table 1): 80%
- No. of Writhings Average (ICR mice [1]; 4 mg/kg, Table 1): 3
- No. of Writhings Individual (ICR mice [1]; 4 mg/kg, Table 1): 0 and 7 and 3
- % Inhibition (ICR mice [1]; 8 mg/kg, Table 1): 87%
- No. of Writhings Average (ICR mice [1]; 8 mg/kg, Table 1): 2
- No. of Writhings Individual (ICR mice [1]; 8 mg/kg, Table 1): 4 and 0 and 2
- % Inhibition (ICR mice [1]; 16 mg/kg, Table 1): 80%
- No. of Writhings Average (ICR mice [1]; 16 mg/kg, Table 1): 3
- No. of Writhings Individual (ICR mice [1]; 16 mg/kg, Table 1): 0 and 4 and 5
- % Inhibition (ICR mice [1]; 32 mg/kg, Table 1): 100%
- No. of Writhings Average (ICR mice [1]; 32 mg/kg, Table 1): 0
- No. of Writhings Individual (ICR mice [1]; 32 mg/kg, Table 1): 0 (2×) and 1
- % Inhibition (ICR mice [1]; 64 mg/kg, Table 1): 100%
- No. of Writhings Average (ICR mice [1]; 64 mg/kg, Table 1): 0
- No. of Writhings Individual (ICR mice [1]; 64 mg/kg, Table 1): 0
- died (animals of group of 3) (ICR mice [1]; 128 mg/kg, Table 1): 2/3 died
- No. of Writhings Individual (ICR mice [1]; 128 mg/kg, Table 1): 0
- analgesic activity (≧50% reduction in writhes) (ICR mice [1]; doses of 64, 32, 16, 8, 4 and 2 mg/kg): Significant activity
- % Inhibition (ICR-derived mice; IP, 1 mg/kg): 13%
- Number of Writhings Average (ICR-derived mice; IP, 1 mg/kg): 14
- Number of Writhings Individual (ICR-derived mice; IP, 1 mg/kg): 16 and 13 and 14
- % Inhibition (ICR-derived mice; IP, 2 mg/kg): 31%
- Number of Writhings Average (ICR-derived mice; IP, 2 mg/kg): 11
- Number of Writhings Individual (ICR-derived mice; IP, 2 mg/kg): 13 and 11 and 8
- % Inhibition (ICR-derived mice; IP, 4 mg/kg): (56) %
- Number of Writhings Average (ICR-derived mice; IP, 4 mg/kg): 7
- Number of Writhings Individual (ICR-derived mice; IP, 4 mg/kg): 2 and 11 and 8
- % Inhibition (ICR-derived mice; IP, 8 mg/kg): (88) %
- Number of Writhings Average (ICR-derived mice; IP, 8 mg/kg): 2
- Number of Writhings Individual (ICR-derived mice; IP, 8 mg/kg): 0 and 4 and 2
- % Inhibition (ICR-derived mice; IP, 16 mg/kg): (69) %
- Number of Writhings Average (ICR-derived mice; IP, 16 mg/kg): 5
- Number of Writhings Individual (ICR-derived mice; IP, 16 mg/kg): 4 and 2 and 9
- % Inhibition (ICR-derived mice; IP, 32 mg/kg): (100) %
- Number of Writhings Average (ICR-derived mice; IP, 32 mg/kg): 0
- Number of Writhings Individual (ICR-derived mice; IP, 32 mg/kg): 0
- Number of Writhings Individual (ICR-derived mice; IP, 64 mg/kg): Died and 0 (2×)
- Died (mortality, animals of group of 3) (ICR-derived mice; IP, 64 mg/kg, 64 mg/kg): 1 of 3 and ⅓ and 1/3 Died
- Number of Writhings Individual (ICR-derived mice; IP, 128 mg/kg): 0 and Died (2×)
- Died (mortality, animals of group of 3) (ICR-derived mice; IP, 128 mg/kg, 128 mg/kg): 2 of 3 and ⅔ and 2/3 Died
- analgesic activity in writhing test (ICR-derived mice; given IP): active
- analgesic activity (≧50% reduction in writhes) (ICR-derived mice; intraperitoneal, doses of 4, 8, 16 and 32 mg/kg): Significant activity
- analgesic activity (≧50% reduction in writhes) (ICR-derived mice; oral administration, 1 to 64 mg/kg): not when given orally; also recorded: not after oral administration
- % Inhibition (ICR-derived mice; oral, 1 mg/kg): 0%
- Number of Writhings Average (ICR-derived mice; oral, 1 mg/kg): 16
- Number of Writhings Individual (ICR-derived mice; oral, 1 mg/kg): 25 and 8 and 14
- % Inhibition (ICR-derived mice; oral, 2 mg/kg): 0%
- Number of Writhings Average (ICR-derived mice; oral, 2 mg/kg): 14
- Number of Writhings Individual (ICR-derived mice; oral, 2 mg/kg): 9 and 21 and 11
- % Inhibition (ICR-derived mice; oral, 4 mg/kg): 0%
- Number of Writhings Average (ICR-derived mice; oral, 4 mg/kg): 14
- Number of Writhings Individual (ICR-derived mice; oral, 4 mg/kg): 9 and 15 and 17
- % Inhibition (ICR-derived mice; oral, 8 mg/kg): 0%
- Number of Writhings Average (ICR-derived mice; oral, 8 mg/kg): 15
- Number of Writhings Individual (ICR-derived mice; oral, 8 mg/kg): 17 and 21 and 6
- % Inhibition (ICR-derived mice; oral, 16 mg/kg): 0%
- Number of Writhings Average (ICR-derived mice; oral, 16 mg/kg): 14
- Number of Writhings Individual (ICR-derived mice; oral, 16 mg/kg): 6 and 17 and 18
- % Inhibition (ICR-derived mice; oral, 32 mg/kg): 0%
- Number of Writhings Average (ICR-derived mice; oral, 32 mg/kg): 15
- Number of Writhings Individual (ICR-derived mice; oral, 32 mg/kg): 12 and 14 and 18
- % Inhibition (ICR-derived mice; oral, 64 mg/kg): 14%
- Number of Writhings Average (ICR-derived mice; oral, 64 mg/kg): 12
- Number of Writhings Individual (ICR-derived mice; oral, 64 mg/kg): 12 and 5 and 18
- Percentage inhibition of radioligand binding, κ-opiate receptor (human κ-opiate receptor): 79%
- Percentage inhibition of radioligand binding, μ-opiate receptor (human μ-opiate receptor): 98%
- test animals exhibiting an increase in respiratory depth (ICR mice [2]; 128 mg/kg IP, Example 17): 3 of 3
- test animals exhibiting slight anoxia (ICR mice [2]; 128 mg/kg IP, Example 17): 3 of 3
- test animals exhibiting slight tremors (ICR mice [2]; 128 mg/kg IP, Example 17): 3 of 3
- Straub tail behaviour (ICR mice [2]; Example 17 (writhing and tail-flick studies)): None of the mice given KRS-5-150 exhibited Straub tail behaviour
- Straub tail behaviour (ICR mice [2]; IP, 2 to 64 mg/kg, Example 16): did not exhibit Straub tail behaviour
